Consider 14 molecules from patent US10975056B2 (GlaxoSmithKline Intellectual Property Development Limited, priority 2016, dated 2021).

Structures can show the parent of a compound that is named as a salt. Where two headings read alike, the source gives them in different places. A value given as a limit tells only on which side of the number the result lay.

In test [1] the test system is erythroid progenitor cells (EPCs). The test can be described thus: Fetal hemoglobin (HbF) ELISA in day 7 erythroid progenitor cells.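 For EPC ELISA (pEC50 category): for fetal hemoglobin induction normalized to vehicle-treated cells.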 It is filed as cell-based, human. The conditions noted are these: Homo sapiens, Erythroid progenitor cell. The gist of the method:
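Read-out was OD450 from an HRP/TMB sandwich ELISA on lysates, normalized to DMSO-only control wells. Thawed day 7 EPCs from human marrow CD34+ cells had been treated for 5 days at 37° C with Compound A, 22 concentrations […].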
In general terms: In an ELISA, binding on a coated surface is turned into a signal by an enzyme label.

A further test concerns the target DNMT1 (Homo sapiens, UniProt P26358). The test can be described thus: DNMT1 biochemical activity, breaklight assay and/or SPA assay. Conditions: for IC50 / DNMT1 BioChemical (pIC50 category): binned activity in either the breaklight or the SPA assay.
[2] abbreviates: HbF ELISA, day 7 EPCs, 5 days, read-out: EPC ELISA (pEC50 category) (converted).
Setting [3] is: read-out: DNMT1 BioChemical (pIC50 category) (converted).

DNMT1, sequence (P26358 whole entry, looked up): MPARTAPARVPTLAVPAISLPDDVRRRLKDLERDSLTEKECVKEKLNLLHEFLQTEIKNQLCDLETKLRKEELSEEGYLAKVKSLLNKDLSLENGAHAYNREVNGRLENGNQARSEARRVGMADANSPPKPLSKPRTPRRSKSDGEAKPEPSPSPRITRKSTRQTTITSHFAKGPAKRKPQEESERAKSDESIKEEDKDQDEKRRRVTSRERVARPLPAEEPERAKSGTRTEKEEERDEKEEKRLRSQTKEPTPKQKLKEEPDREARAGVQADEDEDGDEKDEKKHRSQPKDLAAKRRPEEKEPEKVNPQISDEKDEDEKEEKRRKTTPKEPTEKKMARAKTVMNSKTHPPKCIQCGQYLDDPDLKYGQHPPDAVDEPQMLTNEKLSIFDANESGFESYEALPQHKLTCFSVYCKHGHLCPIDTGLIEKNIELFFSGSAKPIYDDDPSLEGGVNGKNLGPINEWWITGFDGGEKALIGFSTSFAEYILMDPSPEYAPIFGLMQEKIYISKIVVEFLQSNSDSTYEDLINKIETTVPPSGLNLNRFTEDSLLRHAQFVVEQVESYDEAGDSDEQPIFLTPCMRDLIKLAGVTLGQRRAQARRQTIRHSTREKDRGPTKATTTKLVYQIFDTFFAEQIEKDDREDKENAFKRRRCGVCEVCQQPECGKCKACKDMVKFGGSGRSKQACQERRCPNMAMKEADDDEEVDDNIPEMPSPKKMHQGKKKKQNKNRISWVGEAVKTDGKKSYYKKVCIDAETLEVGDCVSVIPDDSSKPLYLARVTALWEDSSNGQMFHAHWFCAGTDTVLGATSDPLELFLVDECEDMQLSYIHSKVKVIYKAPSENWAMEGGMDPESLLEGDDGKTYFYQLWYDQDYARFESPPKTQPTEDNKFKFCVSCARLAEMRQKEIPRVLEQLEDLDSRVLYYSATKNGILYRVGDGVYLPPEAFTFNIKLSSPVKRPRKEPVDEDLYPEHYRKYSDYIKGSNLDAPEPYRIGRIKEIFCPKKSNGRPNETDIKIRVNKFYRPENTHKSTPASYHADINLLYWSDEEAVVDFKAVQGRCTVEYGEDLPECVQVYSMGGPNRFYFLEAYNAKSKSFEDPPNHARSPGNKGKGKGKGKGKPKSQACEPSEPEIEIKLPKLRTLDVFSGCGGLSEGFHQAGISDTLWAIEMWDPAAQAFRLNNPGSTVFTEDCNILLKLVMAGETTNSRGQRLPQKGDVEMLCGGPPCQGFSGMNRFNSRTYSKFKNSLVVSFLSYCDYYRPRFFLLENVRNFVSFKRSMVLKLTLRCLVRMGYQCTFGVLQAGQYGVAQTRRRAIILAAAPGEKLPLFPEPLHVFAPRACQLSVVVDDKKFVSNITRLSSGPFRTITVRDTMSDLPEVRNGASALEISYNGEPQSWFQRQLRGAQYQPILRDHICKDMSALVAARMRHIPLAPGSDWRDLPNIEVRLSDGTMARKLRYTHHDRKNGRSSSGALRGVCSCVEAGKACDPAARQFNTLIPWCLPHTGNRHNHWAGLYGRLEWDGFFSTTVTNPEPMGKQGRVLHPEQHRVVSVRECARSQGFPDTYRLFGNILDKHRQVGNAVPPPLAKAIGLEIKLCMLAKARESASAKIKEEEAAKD

`CCc1c(C#N)c(SC(C(N)=O)c2ccccc2)nc(N2CCC23CCNCC3)c1C#N` (stereo not shown) [Example 38, 2-((3,5-Dicyano-4-ethyl-6-(1,7-diazaspiro[3.5]nonan-1-yl)pyridin-2-yl)thio)-2-phenylacetamide trifluoroacetate]: the EC50 in test [1] (read-out: EPC ELISA (pEC50 category) (converted)) is 0.316 to 1 µM. At DNMT1 (DNMT1 BioChemical (pIC50 category)), this molecule displayed an IC50 of 0.316 to 1 µM.
As for `N#Cc1c(SC(C(N)=O)c2ccncc2)nc(N2CCOCC2)c(C#N)c1C1CC1` (stereo not shown) [Example 9, 2-((3,5-dicyano-4-cyclopropyl-6-morpholinopyridin-2-yl)thio)-2-(pyridin-4-yl)acetamide], in test [1] (setting [2]), the EC50 was greater than 31.6 µM. Moreover, the IC50 on DNMT1 (setting [3]) was 0.316 to 1 µM.
For `CC(Sc1nc(N2CCCNCC2)c(C#N)c(C2CC2)c1C#N)C(N)=O` (stereo not shown) [Example 46, 2-((3,5-dicyano-4-cyclopropyl-6-(1,4-diazepan-1-yl)pyridin-2-yl)thio)propanamide] the same measures were greater than 31.6 µM and 0.316 to 1 µM.
For `CCc1c(C#N)c(SC(C(N)=O)c2ccccc2)nc(N2CCN(CC)CC2)c1C#N` (stereo not shown) [Example 35, 2-((3,5-dicyano-4-ethyl-6-(4-ethylpiperazin-1-yl)pyridin-2-yl)thio)-2-phenylacetamide], the EC50 in test [1] (setting [2]) is 1 to 31.6 µM. For the same molecule, the IC50 on DNMT1 (setting [3]) is 0.316 to 1 µM.
`CN1CCN(CC2CCN(c3nc(SC(C(N)=O)c4ccccc4)c(C#N)c(C4CC4)c3C#N)CC2)CC1` (stereo not shown) [Example 125, 2-((3,5-Dicyano-4-cyclopropyl-6-(4-((4-methylpiperazin-1-yl)methyl)piperidin-1-yl)pyridin-2-yl)thio-2-phenylacetamide trifluoroacetate]: the EC50 in test [1] (setting [2]) was less than 0.316 µM. For the same molecule, the “DNMT1 BioChemical (pIC50 category)” value at DNMT1 was “D (Category D: ≥6.5)”. The “average pIC50 against DNMT1” value at DNMT1 (breaklight assay and/or SPA assay, repeated experimental runs) was greater than 6.5.
For `CCc1c(C#N)c(SC(C(N)=O)c2ccccc2)nc(N2CCNCC2)c1C#N` (stereo not shown) [Example 55, 2-((3,5-Dicyano-4-ethyl-6-(piperazin-1-yl)pyridin-2-yl)thio)-2-phenylacetamide], the EC50 in test [1] (setting [2]) was less than 0.316 µM. The IC50 on DNMT1 (setting [3]) is 0.316 to 1 µM.
Turning to `CN1CCN(C2CCN(c3nc(SC(C(N)=O)c4ccccc4)c(C#N)c(C4CC4)c3C#N)CC2)CC1` (stereo not shown) [Example 40, 2-((3,5-Dicyano-4-cyclopropyl-6-(4-(4-methylpiperazin-1-yl)piperidin-1-yl)pyridin-2-yl)thio)-2-phenylacetamide], in test [1] (setting [2]), the EC50 is less than 0.316 µM. Further, the “DNMT1 BioChemical (pIC50 category)” value on DNMT1 is reported as “D (Category D: ≥6.5)”.
In the case of `CCc1c(C#N)c(SC(C(N)=O)c2ccccc2)nc(N2CCOCC2)c1C#N` (stereo not shown) [Example 57, 2-((3,5-Dicyano-4-ethyl-6-morpholinopyridin-2-yl)thio)-2-phenylacetamide], in test [1] (setting [2]), the EC50 was 0.316 to 1 µM. Also, the IC50 at DNMT1 (setting [3]) is 0.316 to 1 µM.
Consider `CCc1c(C#N)c(SC(C(N)=O)c2ccccc2)nc(N2CCNC(=O)CC2)c1C#N` (stereo not shown) [Example 8, 2-{[3,5-dicyano-4-ethyl-6-(5-oxo-1,4-diazepan-1-yl)pyridin-2-yl]sulfanyl}-2-phenylacetamide], for which the EC50 in test [1] (setting [2]) was 1 to 31.6 µM. The IC50 on DNMT1 (setting [3]) is 0.316 to 1 µM.
Taken in the same sequence, the figures for `CCc1c(C#N)c(SC(C(N)=O)c2ccccc2)nc(N2CCC(O)CC2)c1C#N` (stereo not shown) [Example 48, 2-((3,5-Dicyano-4-ethyl-6-(4-hydroxypiperidin-1-yl)pyridin-2-yl)thio)-2-phenylacetamide] were 1 to 31.6 µM and 0.316 to 1 µM.
`CCc1c(C#N)c(SC(C(N)=O)c2ccccc2)nc(N(C)C)c1C#N` (stereo not shown) [Compound A, 2-{[3,5-dicyano-6-(dimethylamino)-4-ethylpyridin-2-yl]sulfanyl}-2-phenylacetamide]: in test [1] (day 7 EPCs, 5 days at 37° C, read-out: increase in HbF, average pEC50 (converted)), the EC50 was 0.316 µM.
With `CCc1c(C#N)c(N[C@@H](C(N)=O)c2ccccc2)nc(N2CCCNCC2)c1C#N` [Example 41, (R)-2-((3,5-dicyano-6-(1,4-diazepan-1-yl)-4-ethylpyridin-2-yl)amino)-2-phenylacetamide], the EC50 in test [1] (setting [2]) is 1 to 31.6 µM. In addition, on DNMT1 (setting [3]), the IC50 is 0.316 to 1 µM.
Taken in the same sequence, the figures for `N#Cc1c(SC(C(N)=O)c2ccccc2)nc(N2CCOC(CO)C2)c(C#N)c1C1CC1` (stereo not shown) [Example 63, 2-((3,5-Dicyano-4-cyclopropyl-6-(2-(hydroxymethyl)morpholino)pyridin-2-yl)thio)-2-phenylacetamide] were 0.316 to 1 µM and 0.316 to 1 µM.
With `CCc1c(C#N)c(SC(C(N)=O)c2ccccc2)nc(N2CCCN(C)CC2)c1C#N` (stereo not shown) [Example 56, 2-((3,5-Dicyano-4-ethyl-6-(4-methyl-1,4-diazepan-1-yl)pyridin-2-yl)thio)-2-phenylacetamide], the EC50 in test [1] (setting [2]) is less than 0.316 µM. Moreover, at DNMT1, the “DNMT1 BioChemical (pIC50 category)” value is reported as “D (Category D: ≥6.5)”.
